Experimental data: ChEMBL document CHEMBL5346899, “PKM2/PDK1 dual-targeted shikonin derivatives restore the sensitivity of EGFR-mutated NSCLC cells to gefitinib by remodeling glucose metabolism” (Eur J Med Chem, 2023)
The source made the active and inactive calls. The rule behind the calls is not given here.

Key:
Pyruvate kinase PKM [1] = target: T1, Pyruvate kinase PKM (Homo sapiens, UniProt P14618); assay: Binding affinity to PKM2 (unknown origin) assessed as dissociation constant associated for 60 secs and dissociated for 90 secs by bio-layer interferometry analysis
Target sequence in this assay (P14618 whole entry): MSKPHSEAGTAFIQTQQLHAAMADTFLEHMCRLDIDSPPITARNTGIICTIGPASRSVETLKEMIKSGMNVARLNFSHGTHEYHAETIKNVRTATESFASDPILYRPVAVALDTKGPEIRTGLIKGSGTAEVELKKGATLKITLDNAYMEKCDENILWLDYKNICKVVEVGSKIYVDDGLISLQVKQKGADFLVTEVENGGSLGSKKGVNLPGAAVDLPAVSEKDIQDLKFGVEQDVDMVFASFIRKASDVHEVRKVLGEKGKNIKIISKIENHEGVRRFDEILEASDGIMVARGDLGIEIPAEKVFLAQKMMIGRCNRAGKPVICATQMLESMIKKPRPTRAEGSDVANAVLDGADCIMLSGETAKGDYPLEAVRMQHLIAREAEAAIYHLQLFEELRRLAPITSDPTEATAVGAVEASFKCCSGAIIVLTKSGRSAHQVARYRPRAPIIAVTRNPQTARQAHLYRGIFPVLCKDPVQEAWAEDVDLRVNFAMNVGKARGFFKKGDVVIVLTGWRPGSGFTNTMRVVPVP

[2] = target: T2, [Pyruvate dehydrogenase (acetyl-transferring)] kinase isozyme 1, mitochondrial (Homo sapiens, UniProt Q15118); assay: Binding affinity to PDK1 (unknown origin) assessed as dissociation constant associated for 60 secs and dissociated for 90 secs by bio-layer interferometry analysis
T2 sequence (Q15118 whole entry): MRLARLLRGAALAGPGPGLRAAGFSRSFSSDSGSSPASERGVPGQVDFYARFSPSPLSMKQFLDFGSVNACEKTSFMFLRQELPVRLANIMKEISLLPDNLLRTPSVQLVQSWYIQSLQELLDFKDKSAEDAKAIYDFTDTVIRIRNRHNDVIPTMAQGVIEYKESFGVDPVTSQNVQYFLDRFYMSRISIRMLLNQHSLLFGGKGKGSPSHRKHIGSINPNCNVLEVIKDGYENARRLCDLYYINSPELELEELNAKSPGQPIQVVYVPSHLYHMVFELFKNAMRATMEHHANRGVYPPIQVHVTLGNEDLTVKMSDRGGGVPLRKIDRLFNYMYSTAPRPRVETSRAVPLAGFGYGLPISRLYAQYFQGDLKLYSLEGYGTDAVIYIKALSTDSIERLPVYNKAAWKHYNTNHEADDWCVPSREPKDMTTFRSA

A549 [3] = assay: Induction of intracellular ROS accumulation in human A549 cells; format: functional, cell-based
NCI-H1975 [4] = assay: Inhibition of glycolysis in human NCI-H1975 cells assessed as reduction in glucose consumption incubated for 24 hrs by colorimetric assay; format: functional, cell-based
A549 [5] = assay: Induction of apoptosis in human A549 cells assessed as late apoptotic cells at 2 micromol/L incubated for 24 hrs by Annexin V-FITC/PI staining based analysis (reference value: 3.18%); format: functional; details: dose 2 µmol/L, at 2 µM
[6] = target: T2, [Pyruvate dehydrogenase (acetyl-transferring)] kinase isozyme 1, mitochondrial; assay: Inhibition of PDK1 in human HCC827 cells at 1 to 2 micromol/L by Western blot analysis; format: cell-based; details: dose 1-2 µmol/L
[7] = target: T2, [Pyruvate dehydrogenase (acetyl-transferring)] kinase isozyme 1, mitochondrial; assay: Inhibition of PDK1 in human NCI-H1975 cells at 1 to 2 micromol/L by Western blot analysis; format: cell-based; details: dose 1-2 µmol/L
HCC827 [8] = assay: Induction of apoptosis in human HCC827 cells assessed as early apoptotic cells at 1 micromol/L incubated for 24 hrs by Annexin V-FITC/PI staining based analysis (reference value: 9.14%); format: functional; details: dose 1 µmol/L, at 1 µM
NCI-H1975 [9] = assay: cells; format: functional, cell-based; details: Homo sapiens, NCI-H1975, 24 h
Description: Antiproliferative activity against human NCI-H1975 cells assessed as inhibition of cell growth incubated for 24 hrs by CCK-8 assay

A549 [10] = assay: cells; format: functional, cell-based; details: Homo sapiens, A549, 24 h
Description: Antiproliferative activity against human A549 cells assessed as inhibition of cell growth incubated for 24 hrs by CCK-8 assay

NCI-H1975 [11] = assay: Induction of mitochondrial transmembrane potential dissipation in human NCI-H1975 cells assessed as cells with high mitochondrial transmembrane potential at 0.5 micromol/L by FL-1/FL-2 channel based fluorescence analysis (reference value: 97.4%); format: functional; details: dose 0.5 µmol/L; at 0.5 µM
NCI-H1975 [12] = assay: Antiproliferative activity against siRNA mediated PKM2 knockdown human NCI-H1975 cells assessed as inhibition of cell growth incubated for 24 hrs by CCK-8 assay; format: functional, cell-based; details: NCI-H1975, 24 h
NCI-H1975 [13] = assay: Induction of oxidative phosphorylation in human NCI-H1975 cells assessed as increase in ATP production by luminescence based assay; format: functional, cell-based
NCI-H1975 [14] = assay: Induction of apoptosis in human NCI-H1975 cells assessed as late apoptotic cells at 0.5 micromol/L incubated for 24 hrs in presence of gefitinib by Annexin V-FITC/PI staining based analysis (reference value: 8.61%); format: functional; details: dose 0.5 µmol/L, at 0.5 µM
Pyruvate kinase PKM [15] = target: T1, Pyruvate kinase PKM; assay: Activation of PKM2 in siRNA mediated PKM2 knockdown human NCI-H1975 cells at 1 to 2 micromol/L by Western blot analysis; format: cell-based; details: dose 1-2 µmol/L
Target sequence in this assay (P14618 2-531 limits assumed): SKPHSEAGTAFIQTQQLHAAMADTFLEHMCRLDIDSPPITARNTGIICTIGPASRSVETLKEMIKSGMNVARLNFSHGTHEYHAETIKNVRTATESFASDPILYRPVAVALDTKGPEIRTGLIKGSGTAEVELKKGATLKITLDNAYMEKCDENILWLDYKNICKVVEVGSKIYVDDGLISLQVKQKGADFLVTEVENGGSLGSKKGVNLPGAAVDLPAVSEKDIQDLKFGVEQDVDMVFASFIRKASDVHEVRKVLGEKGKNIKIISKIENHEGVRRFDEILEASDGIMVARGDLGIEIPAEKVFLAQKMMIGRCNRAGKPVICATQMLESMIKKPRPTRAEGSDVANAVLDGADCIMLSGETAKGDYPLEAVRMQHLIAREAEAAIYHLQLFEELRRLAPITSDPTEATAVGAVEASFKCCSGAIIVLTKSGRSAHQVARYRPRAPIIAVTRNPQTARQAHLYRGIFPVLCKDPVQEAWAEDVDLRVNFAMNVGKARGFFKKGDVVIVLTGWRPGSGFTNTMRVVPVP

Pyruvate kinase PKM [16] = target: T1, Pyruvate kinase PKM; assay: Activation of PKM2 in siRNA mediated PKM2 knockdown human HCC827 cells at 1 to 2 micromol/L by Western blot analysis; format: cell-based; details: dose 1-2 µmol/L
Target sequence in this assay (P14618 2-531 limits assumed): as above

NCI-H1975 [17] = assay: Synergistic antiproliferative activity against human NCI-H1975 cells harboring EGFR mutant assessed as cell growth inhibition at 0.5 to 4 micromol/L incubated for 24 hrs in presence of 2.5 to 20 micromol/L gefitinib by CCK-8 assay; format: functional, cell-based; details: dose 0.5-4 µmol/L
NCI-H1975 [18] = assay: Antiproliferative activity against human NCI-H1975 cells assessed as reduction in clone size; format: functional, cell-based
NCI-H1975 [19] = assay: Downregulation of PDK1 protein expression in human NCI-H1975 cells at 1 to 2 micromol/L by Western blot analysis; format: functional, cell-based; details: dose 1-2 µmol/L
NCI-H1299 [20] = assay: Induction of apoptosis in human NCI-H1299 cells assessed as early apoptotic cells at 2 micromol/L incubated for 24 hrs by Annexin V-FITC/PI staining based analysis (reference value: 2.43%); format: functional; details: dose 2 µmol/L, at 2 µM
NCI-H1975 [21] = assay: Inhibition of NADPH production in human NCI-H1975 cells incubated for 2 hrs by NADP+/NADPH assay; format: functional, cell-based
NCI-H1975 [22] = assay: Antitumor activity against human NCI-H1975 cells xenografted in athymic nu/nu mouse assessed as damage in tumor tissue at 2.4 to 4.8 mg/kg, ip administered every 2 days for 11 days by H and E staining based analysis; format: functional, organism-based; details: dose 2.4-4.8 mg/kg, time 11.0 day
NCI-H1975 [23] = assay: Induction of apoptosis in human NCI-H1975 cells assessed as regulation of PARP expression by Western blot analysis; format: functional, cell-based
HCC827 [24] = assay: Antiproliferative activity against human HCC827 cells assessed as reduction in clone size; format: functional, cell-based
NCI-H1975 [25] = assay: Induction of apoptosis in human NCI-H1975 cells transfected with siRNA assessed as late apoptotic cells at 2 micromol/L incubated for 24 hrs by Annexin V-FITC/PI staining based analysis (reference value: 4.03%); format: functional; details: dose 2 µmol/L, at 2 µM
NCI-H1975 [26] = assay: Induction of apoptosis in human NCI-H1975 cells transfected with siRNA assessed as early apoptotic cells at 1 micromol/L incubated for 24 hrs by Annexin V-FITC/PI staining based analysis (reference value: 1.16%); format: functional; details: dose 1 µmol/L, at 1 µM
NCI-H1975 [27] = assay: Induction of apoptosis in human NCI-H1975 cells with siRNA mediated […] knockdown assessed as late apoptotic cells at 2 micromol/L incubated for 24 hrs by Annexin V-FITC/PI staining based analysis (reference value: 6.25%); format: functional; details: dose 2 µmol/L, at 2 µM
HCC827 [28] = assay: cells; format: functional, cell-based; details: Homo sapiens, HCC827, 24 h
Description: Antiproliferative activity against human HCC827 cells assessed as inhibition of cell growth incubated for 24 hrs by CCK-8 assay

NCI-H1975 [29] = assay: Effect on PKM2 protein expression in human NCI-H1975 cells at 1 to 2 micromol/L by Western blot analysis; format: functional, cell-based; details: dose 1-2 µmol/L
NCI-H1975 [30] = assay: Induction of apoptosis in human NCI-H1975 cells assessed as regulation of Caspase-9 expression by Western blot analysis; format: functional, cell-based
NCI-H1975 [31] = assay: Inhibition of glycolysis in human NCI-H1975 cells assessed as reduction in lactate production incubated for 1 hrs by colorimetric assay; format: functional, cell-based
in vitro = details: human, HEK293T cells
Description: Cytotoxicity against HEK293T cells assessed as inhibition of cell growth incubated for 24 hrs by CCK-8 assay

NCI-H1975 [32] = assay: Induction of apoptosis in human NCI-H1975 cells assessed as early apoptotic cells at 0.5 micromol/L incubated for 24 hrs by Annexin V-FITC/PI staining based analysis (reference value: 2.55%); format: functional; details: dose 0.5 µmol/L, at 0.5 µM
NCI-H1299 [33] = assay: Induction of apoptosis in human NCI-H1299 cells assessed as early apoptotic cells at 1 micromol/L incubated for 24 hrs by Annexin V-FITC/PI staining based analysis (reference value: 2.43%); format: functional; details: dose 1 µmol/L, at 1 µM
[34] = Acute toxicity in ICR mouse assessed as damage in vital organs at 2.4 to 38.4 mg/kg, ip measured after 15 days by H and E staining based analysis; format: organism-based; details: in vivo, 360 h, dose 2.4-38.4 mg/kg, time 15 day
NCI-H1975 [35] = assay: Induction of apoptosis in human NCI-H1975 cells assessed as early apoptotic cells at 0.5 micromol/L incubated for 24 hrs in presence of gefitinib by Annexin V-FITC/PI staining based analysis (reference value: 2.55%); format: functional; details: dose 0.5 µmol/L, at 0.5 µM

## COC(=O)[C@H](CS[C@H](CC=C(C)C)C1=CC(=O)c2c(O)ccc(O)c2C1=O)NC(=O)CCCC[C@@H]1CCSC(c2ccccc2C)S1 (stereo partly specified)
Pyruvate kinase PKM [1]
  Kd: 28 µM
[2]
  Kd: 12.1 µM
A549 [3]
  Activity: Active
NCI-H1975 [4]
  inhibition: Active
A549 [5]
  Activity: 6.46%
[6]
  inhibition: Active
[7]
  inhibition: Active
HCC827 [8]
  Activity: 16.5%
NCI-H1975 [9]
  IC50: 1.51 µM
A549 [10]
  IC50: 6.26 µM
NCI-H1975 [11]
  Activity: 88.1%
NCI-H1975 [12]
  IC50: 8 µM
NCI-H1975 [13]
  Activity: Active
NCI-H1975 [14]
  Activity: 25%
Pyruvate kinase PKM [15]
  Activity: inactive
Pyruvate kinase PKM [16]
  Activity: inactive
NCI-H1975 [17]
  Activity: Active
NCI-H1975 [18]
  Activity: Dose-Dependent Effect
NCI-H1975 [19]
  Activity: inactive
NCI-H1299 [20]
  Activity: 2.68%
NCI-H1975 [21]
  inhibition: Active
NCI-H1975 [22]
  Activity: Active
NCI-H1975 [23]
  Activity: Active
HCC827 [24]
  Activity: Dose-Dependent Effect
NCI-H1975 [25]
  Activity: 9.4%
NCI-H1975 [26]
  Activity: 3.44%
NCI-H1975 [27]
  Activity: 8.16%
HCC827 [28]
  IC50: 5.19 µM
NCI-H1975 [29]
  Activity: inactive
NCI-H1975 [30]
  Activity: Active
NCI-H1975 [31]
  inhibition: Active
In vitro
  IC50 at 24 h: 99.5 µM
NCI-H1975 [32]
  Activity: 1.54%
NCI-H1299 [33]
  Activity: 4.68%
[34]
  Activity: Non-Toxic
NCI-H1975 [35]
  Activity: 17.6%
